Experimental data reported in patent publication US6590071B1, “Reversible aqueous pH sensitive lipidizing reagents, compositions and methods of use” (University of Southern California, priority 1998, dated 2003).
No end group written: not given here.

What was measured:
[1] = tested on: vasopressin deficient Brattleboro rats; assay: In vivo effect on urine output in vasopressin deficient Brattleboro rats; design: species or system rat; settings: 5 μg/kg subcutaneous; for time after injection at which urine excretion was back to original: Brattleboro rats (FIG. 3); for delay in urine excretion: first 8 h (FIG. 2)
Description: REAL-AVP was injected subcutaneously in animals (5 μg/kg) and urine was collected at different time points. […] AVP and Pal-AVP have similar effects with a delay in urine excretion of 4 h. A longer delay in urine excretion, up to 6 h, was observed after injection of REAL-AVP. […] The amount of urine excretion was back to original 24 h after injection of Pal-AVP and AVP. However, the effect of REAL-AVP lasted for 3 days (FIG. 3).

[2] = tested on: hyperglycemic (diabetic) Sprague Dawley rats; assay: Blood glucose level in streptozotocin-induced diabetic rats after subcutaneous injection; type: in vivo, rat
Description: Diabetes was induced in Sprague Dawley rats using i.v. injection of 60 mg/kg, streptozotocin. Solutions of 0.5 Unit/ml insulin or REAL-insulin in borate buffer (pH 10, 0.1M) were prepared. Rats were fasted 16 h prior to the experiment and were injected subcutaneously 0.5 Unit/kg of insulin or REAL-insulin. The blood glucose level of rats was monitored at different time points for 9 h. After this time rats were fed and the blood glucose level was measured after 15 h of feeding. The rats were again fasted and blood glucose level was measured after 16 h. The period of fasting and feeding was continued for 3 days.

[3] = tested on: fasted diabetic rats; assay: Blood glucose level in fasted diabetic rats after oral administration; type: in vivo, rat; settings: 10 U/kg oral, water/oil microemulsion, in 9 hours (FIG. 6)
Description: The blood glucose level of rats was increased one week after inducing diabetes from an average of 100 mg/dl to 420 mg/dl (non-fasted rats). […] This is possibly due to the time required for REAL-insulin to be hydrolyzed and to release free insulin. After injection of insulin the fast blood glucose level of rats was back to original within 24 h. However, in the case of the rats treated with REAL-insulin, the drug effect on the fast blood glucose level lasted for 3 days (FIG. 5). Fasted diabetic rats were also administered by oral means 10 U/kg of insulin, REAL-insulin and placebo. Rats were fasted 16 h prior to oral administration. A water/oil microemulsion was used as the drug carrier.

| Compound | time after injection at which urine excretion was back to original [1] | delay in urine excretion ([1]; Brattleboro rats) | effectiveness compared with REAL-AVP ([1]; Brattleboro rats) | time for fast blood glucose level to be back to original ([2]; 0.5 U/kg subcutaneous, diabetic rats (FIG. 5)) | change in blood glucose level within the first hour ([2]; subcutaneous, fasted diabetic rats (FIG. 4)) | reduction of the blood glucose level [3] |
| --- | --- | --- | --- | --- | --- | --- |
| NC(=O)CC[C@@H]1NC(=O)[C@H](Cc2ccccc2)NC(=O)[C@H](Cc2ccc(O)cc2)NC(=O)[C@@H](N)CSSC[C@@H](C(=O)N2CCC[C@H]2C(=O)N[C@@H](CCCN=C(N)N)C(=O)NCC(N)=O)NC(=O)[C@H](CC(N)=O)NC1=O [AVP, Arginine vasopressin] | 24 h | 4 h | – | – | – | – |
| Pal-AVP: Direct lipidization of AVP to palmitic acid (CYFQNCPRG; ends and bridges not checked; also: palmitoylated, position not given here; UniProt P01185 20-28, looked up) | 24 h | 4 h | not as effective as REAL-AVP | – | – | – |
| insulin | – | – | – | ≤ 24 h | significant drop | no significant reduction |
